Here are results for seven compounds from patent US8518957B2, “Methanocarba adenosine derivatives, pharmaceutical compositions, and method of reducing intraocular pressure” (The United States of America, as represented by the …, priority 2009, dated 2013).

In one assay the target is T1, hA2AAR (Homo sapiens, UniProt P29274).
T1 construct: expressed in transfected cells
Description: Radioligand binding at human A2A AR ([3H]CGS21680, membranes of HEK-293 cells). The protocol:
(§1) [^3H](2-[p-(2-Carboxyethyl)phenyl-ethylamino]-5′-N-ethylcarboxamido-adenosine) (37, [^3H]CGS21680, 40.5 Ci/mmol) and [^125I]N^6-(4-amino-3-iodobenzyl)adenosine-5′-N-methyluronamide (38, [^125I]I-AB-MECA, 2200 Ci/mmol) were purchased from Perkin-Elmer Life and Analytical Science (Boston, Mass.). Test compounds were prepared as 5 mM stock solutions in DMSO and stored frozen at −20° C.
(§2) CHO cells stably expressing the recombinant hA1 and hA3Rs, and HEK-293 cells stably expressing the hA2AAR were cultured in Dulbecco's modified Eagle medium (DMEM) and F12 (1:1) supplemented with 10% fetal bovine serum, 100 units/mL penicillin, 100 μg/mL streptomycin, and […] glutamine. In addition, 800 μg/mL geneticin was added to the A2A media, while 500 μg/mL hygromycin was added to the A1 and A3 media. After harvesting, cells were homogenized and suspended in PBS. Cells were then centrifuged at 240 g for 5 min, and the pellet was resuspended in 50 mM Tris-HCl buffer (pH 7.5) containing 10 mM MgCl2. The suspension was homogenized and was then ultra-centrifuged at 14,330 g for 30 min at 4° C. The resultant pellets were resuspended in Tris buffer, incubated with adenosine deaminase (3 units/mL) for 30 min at 37° C. The suspension was homogenized with an electric homogenizer for 10 sec, pipetted into 1 mL vials and then stored at −80° C. until the binding experiments were conducted. The protein concentration was measured using the BCA Protein Assay Kit from Pierce Biotechnology, Inc. (Rockford, Ill.).
(§3) Into each tube in the binding assay was added 50 μL of increasing concentrations of the test ligand in Tris-HCl buffer (50 mM, pH 7.5) containing 10 mM MgCl2, 50 μl, of the appropriate agonist radioligand, and finally 100 μL of membrane suspension. For the A1AR (22 μg of protein/tube) the radioligand used was [^3H]36 (final concentration of 3.5 nM). For the A2AAR (20 μg/tube) the radioligand used was [^3H]37 (10 nM). For the A3AR (21 μg/tube) the radioligand used was [^125I]38 (0.34 nM). Nonspecific binding was determined using a final concentration of 10 μM unlabeled 36 diluted with the buffer. The mixtures were incubated at 25° C. for 60 min in a shaking water bath. Binding reactions were terminated by filtration through Brandel GF/B filters under a reduced pressure using a M-24 cell harvester (Brandel, Gaithersburg, Md.). Filters were washed three times with 3 mL of 50 mM ice-cold Tris-HCl buffer (pH 7.5). Filters for A1 and A2AAR binding were placed in scintillation vials containing 5 mL of Hydrofluor scintillation buffer and counted using a Perkin Elmer Liquid Scintillation Analyzer (Tri-Carb 2810TR). Filters for A3AR binding were counted using a Packard Cobra II γ-counter. The Ki values were determined using GraphPad Prism for all assays.
(§4) [^3H](2-[p-(2-carboxyethyl)phenyl-ethylamino]-5′-N-ethylcarboxamido-adenosine) ([^3H]CGS21680, 40.5 Ci/mmol) and [^125I]N^6-(4-amino-3-iodobenzyl)adenosine-5′-N-methyluronamide ([^125I]I-AB-MECA, 2200 Ci/mmol) were purchased from PerkinElmer. Test compounds were prepared as 5-mM stock solutions in DMSO and stored frozen at −20° C.
(§5) Chinese hamster ovary (CHO) cells were generated by stably expressing the recombinant hA1 and hA3 and human embryonic kidney (HEK) 293 cells stably expressing the hA2AAR in DMEM and F12 (1:1) supplemented with 10% fetal bovine serum, 100 units/mL penicillin, 100 μg/mL streptomycin, and 2 μmol/mL glutamine. 800 μg/mL Geneticin were added to the A2A media and 500 μg/mL hygromycin to the A1 and A3 media. After harvesting the cells, they were homogenized with an electric homogenizer for 10 sec, pipetted them into 1-mL vials, and then stored them at −80° C. until the binding experiments were conducted. The protein concentration was measured with a BCA Protein Assay Kit from Pierce Biotechnology (Rockford, Ill.). […]

The next assay deals with T2, human A1 AR (Homo sapiens, UniProt P30542).
T2 construct: expressed in transfected cells
T2 sequence (P30542 1-326): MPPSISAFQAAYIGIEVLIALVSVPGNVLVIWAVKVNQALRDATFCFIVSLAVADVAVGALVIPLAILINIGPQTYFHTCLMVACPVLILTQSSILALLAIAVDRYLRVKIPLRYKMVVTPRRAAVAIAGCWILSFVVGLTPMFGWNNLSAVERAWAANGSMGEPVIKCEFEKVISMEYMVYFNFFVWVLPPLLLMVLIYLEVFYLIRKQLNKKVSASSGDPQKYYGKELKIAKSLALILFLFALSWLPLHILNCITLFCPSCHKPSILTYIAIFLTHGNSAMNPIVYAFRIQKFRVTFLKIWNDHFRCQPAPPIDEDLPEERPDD
Description: Radioligand binding at human A1 AR ([3H]NECA, membranes of CHO cells). The following applies: for Ki: Example 7, agonist radioligand [3H]45, read-out: AR Affinity Ki, nM, A1. As to the method:
as §1, §2, §3, §4, §5

The next assay concerns the target T3, human A3AR (Homo sapiens, UniProt P0DMS8).
T3 construct: expressed in transfected cells
T3 sequence (P0DMS8 1-318): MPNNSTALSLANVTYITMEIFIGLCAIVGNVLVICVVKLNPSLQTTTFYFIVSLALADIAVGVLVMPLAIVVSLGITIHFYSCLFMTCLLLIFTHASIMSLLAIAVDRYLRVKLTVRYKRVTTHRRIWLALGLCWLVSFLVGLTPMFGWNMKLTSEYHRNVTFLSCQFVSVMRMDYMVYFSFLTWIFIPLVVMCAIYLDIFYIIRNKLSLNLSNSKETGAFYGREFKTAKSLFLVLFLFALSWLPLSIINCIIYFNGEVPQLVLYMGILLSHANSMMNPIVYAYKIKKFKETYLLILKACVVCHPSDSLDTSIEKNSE
Description: Radioligand binding at human A3 AR ([125I]I-AB-MECA, membranes of CHO cells). The following applies: Example 7; agonist radioligand [125I]47; read-out: AR Affinity Ki, nM, A3. The protocol: Test compounds were prepared as 5 mM stock solutions in DMSO and stored frozen at −20° C.
as §2
as §3, with “For the A1AR (22 μg of protein/tube) the radioligand used was [^3H]36 (final concentration of 3.5 nM).” left out, “For the A3AR (21 μg/tube) the radioligand used was [^125I]38 (0.34 nM).” left out, “Filters for A1 and A2AAR binding were placed in scintillation vials containing 5 mL of Hydrofluor scintillation buffer and counted using a Perkin Elmer Liquid Scintillation Analyzer (Tri-Carb 2810TR).” left out
Test compounds were prepared as 5-mM stock solutions in DMSO and stored frozen at −20° C.
Chinese hamster ovary (CHO) cells were generated by stably expressing the recombinant hA1 and hA3 and human embryonic kidney (HEK) 293 cells stably expressing the hA2AAR in DMEM and F12 (1:1) supplemented with 10% fetal bovine serum, 100 units/mL penicillin, 100 μg/mL streptomycin, and 2 μmol/mL glutamine. 800 μg/mL Geneticin were added to the A2A media and 500 μg/mL hygromycin to the A1 and A3 media. After harvesting the cells, they were homogenized with an electric homogenizer for 10 sec, pipetted them into 1-mL vials, and then stored them at −80° C. until the binding experiments were conducted. The protein concentration was measured with a BCA Protein Assay Kit from Pierce Biotechnology (Rockford, Ill.).
Each tube in the binding assay contained 50 μL of increasing concentrations of the test ligand in Tris-HCl buffer (50 mM, pH 7.5) containing 10 mM MgCl2, 50 μL of the appropriate agonist radioligand, and 100 μL membrane suspension, added sequentially. […] For the A2AAR (20 μg/tube), the radioligand [^3H]CGS21680 was used (−10 nM). […] The mixtures were incubated at 25° C. for 60 min in a shaking water bath. The binding reactions were terminated by filtration through Brandel GF/B filters under a reduced pressure with a M-24 cell harvester (Brandel, Gaithersburg, Md.). Filters were washed three times with 3 mL 50-mM ice-cold Tris-HCl buffer (pH 7.5). […] The filters were counted for A3AR binding with a Packard Cobra II γ-counter (PerkinElmer). The Ki values were determined with GraphPad Prism for all assays.

T1 sequence (P29274 whole entry): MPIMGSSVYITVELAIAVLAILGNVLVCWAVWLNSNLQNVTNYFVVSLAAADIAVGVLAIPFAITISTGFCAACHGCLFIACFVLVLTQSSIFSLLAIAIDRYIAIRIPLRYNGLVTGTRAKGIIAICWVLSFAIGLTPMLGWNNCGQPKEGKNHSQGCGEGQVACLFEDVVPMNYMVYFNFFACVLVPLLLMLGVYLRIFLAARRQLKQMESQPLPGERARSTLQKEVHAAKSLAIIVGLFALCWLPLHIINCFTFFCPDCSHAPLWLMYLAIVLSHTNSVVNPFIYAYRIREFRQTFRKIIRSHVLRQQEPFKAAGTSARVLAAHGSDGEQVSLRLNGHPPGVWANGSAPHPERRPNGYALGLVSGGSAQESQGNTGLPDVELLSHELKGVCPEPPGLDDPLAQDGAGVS

`CNC(=O)[C@@]12C[C@@H]1[C@@H](n1cnc3c(NCc4cccc(C#CCCCc5cn(-c6ccc(F)c([N+](=O)[O-])c6)nn5)c4)nc(Cl)nc31)[C@H](O)[C@@H]2O` [Compound 203, (1S,2R,3S,4R,5S)-4-(2-Chloro-6-(3-(5-(1-(4-fluoro-3-nitrophenyl)-1H-1,2,3-triazol-4-yl)pent-1-ynyl)benzylamino)-9H-purin-9-yl)-2,3-dihydroxybicyclo[3.1.0]hexane-1-carboxylic acid-N-methylamide]: the Ki on hA2AAR (Example 7, agonist radioligand [3H]46, HEK293, read-out: AR Affinity Ki, nM, A2A) was determined as 1960 ± 50 nM; at human A1 AR, 37.4 ± 12 nM; on human A3AR, 3.2 ± 1.1 nM.
In turn, `CNC(=O)[C@@]12C[C@@H]1[C@@H](n1cnc3c(NCc4cccc(C#CCCCCc5cn(-c6ccc(F)c([N+](=O)[O-])c6)nn5)c4)nc(Cl)nc31)[C@H](O)[C@@H]2O` [Compound 204, (1S,2R,3S,4R,5S)-4-(2-Chloro-6-(3-(6-(1-(4-fluoro-3-nitrophenyl)-1H-1,2,3-triazol-4-yl)hex-1-ynyl)benzylamino)-9H-purin-9-yl)-2,3-dihydroxybicyclo[3.1.0]hexane-1-carboxylic acid-N-methylamide] returned an inhibition at 10 µM on hA2AAR of 28.6%. The values for the inhibition constant (Ki) at human A1 AR and on human A3AR were 2420 ± 230 nM and 71.7 ± 54 nM, respectively.
With `CNC(=O)[C@@]12C[C@@H]1[C@@H](n1cnc3c(NCc4cccc(C#CCCCCCc5cn(-c6ccc(F)c([N+](=O)[O-])c6)nn5)c4)nc(Cl)nc31)[C@H](O)[C@@H]2O` [Compound 205, (1S,2R,3S,4R,5S)-4-(2-Chloro-6-(3-(7-(1-(4-fluoro-3-nitrophenyl)-1H-1,2,3-triazol-4-yl)hept-1-ynyl)benzylamino)-9H-purin-9-yl)-2,3-dihydroxybicyclo[3.1.0]hexane-1-carboxylic acid-N-methylamide], the inhibition at 10 µM at hA2AAR stood at 25.2%. Moreover, the Ki on human A1 AR is 1290 ± 290 nM; at human A3AR, 30.1 ± 13 nM.
Taken in the same sequence, the figures for `CNC(=O)[C@@]12C[C@@H]1[C@@H](n1cnc3c(NCc4cccc(C#CCCCCc5cn(C67CC8CC(CC(C8)C6)C7)nn5)c4)nc(Cl)nc31)[C@H](O)[C@@H]2O` [Compound 206, (1S,2R,3S,4R,5S)-4-(2-Chloro-6-(3-(6-(1-(adamantyl)-1H-1,2,3-triazol-4-yl)hex-1-ynyl)benzylamino)-9H-purin-9-yl)-2,3-dihydroxybicyclo[3.1.0]hexane-1-carboxylic acid-N-methylamide] were 17%, 1720 ± 240 nM and 21.8 ± 5.3 nM.
As to `C#CCCCCC#Cc1cccc(CNc2nc(Cl)nc3c2ncn3[C@H]2[C@H](O)[C@H](O)[C@@H]3C[C@@H]32)c1` [Compound 212, (1R,2R,3S,4R,5S)-4-(2-Chloro-6-(3-(octa-1,7-diynyl)benzylamino)-9H-purin-9-yl) bicyclo[3.1.0]hexane-2,3-diol], the inhibition at 10 µM was 44.1% on hA2AAR and 48.5% at human A1 AR. Moreover, the Ki at human A3AR was 2500 ± 640 nM.
The matching figures for `O=[N+]([O-])c1cc(-n2cc(CCCC#Cc3cccc(CNc4nc(Cl)nc5c4ncn5[C@H]4[C@H](O)[C@H](O)[C@@H]5C[C@@H]54)c3)nn2)ccc1F` [Compound 214, (1R,2R,3S,4R,5S)-4-(2-Chloro-6-(3-(5-(1-(4-fluoro-3-nitrophenyl)-1H-1,2,3-triazol-4-yl)pent-1-ynyl)benzylamino)-9H-purin-9-yl)-bicyclo[3.1.0]hexane-2,3-diol]: 16.7%, 11% and 897 ± 20 nM.
Taken in the same sequence, the figures for `O=[N+]([O-])c1cc(-n2cc(CCCCC#Cc3cccc(CNc4nc(Cl)nc5c4ncn5[C@H]4[C@H](O)[C@H](O)[C@@H]5C[C@@H]54)c3)nn2)ccc1F` [Compound 215, (1R,2R,3S,4R,5S)-4-(2-Chloro-6-(3-(6-(1-(4-fluoro-3-nitrophenyl)-1H-1,2,3-triazol-4-yl)hex-1-ynyl)benzylamino)-9H-purin-9-yl)-bicyclo[3.1.0]hexane-2,3-diol] were 8.2%, 24.3% and 933 ± 720 nM.
